Among the data in PubChem BioAssay (NCI) are GI50 and TGI values, retold here.

Holding throughout (experiment): NCI-60 cell line screen, 48 h
The subject of test [1] is BT-549 breast.
Test [2] has as its system NCI-H226 lung.
In test [3] the test system is OVCAR-4 ovarian.
The test system of test [4] is OVCAR-5 ovarian.
For test [5], the system named is SK-MEL-5 melanoma.
In test [6] the test system is SN12C renal.
The subject of test [7] is SW-620 colon.
In test [8] the test system is UACC-62 melanoma.

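Dose response: 5 concentrations. Exposure: 48 h. Format: 96-well plates. Endpoint: linear interpolation; highest concentration if not reached. GI50 marks 50% less growth. TGI is the concentration that stops growth completely.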 Some results are limits rather than exact numbers.

As for `CC(C)(C)OC(=O)N1CCN(CCn2cc(C(F)(F)F)c3c(Cl)ncnc32)CC1`, the GI50 in test [1] was 1.55 µM; in test [2] it was 20 µM; in test [3], 13.2 µM; in test [4], 17.1 µM; in test [5], 4.19 µM; in test [6], 4.05 µM. The GI50 in test [7] is 2.2 µM; in test [8], 2.25 µM. Besides, the TGI in test [1] came to 2.92 µM; in test [2], 43.3 µM; in test [3] it was 26.7 µM; in test [4] it was 38.7 µM; in test [5] it was 14.5 µM; in test [6], 15.1 µM. The TGI amounted to 4.64 µM in test [7] and 5.69 µM in test [8].

As for `Nc1c(C(=O)c2cccc(-c3ccncc3)c2)cnn1-c1ccc(F)cc1F`, the GI50 in test [1] was 11.1 µM; in test [2] it was 4.36 µM; in test [3], 11.4 µM; in test [4] it was over 25 µM; in test [5], 1.68 µM; in test [6] it was 12.1 µM. The GI50 in test [7] is 3.12 µM; in test [8] it was 5.34 µM. In addition, the TGI was over 25 µM in test [1]; over 25 µM in test [2]; over 25 µM in test [3]; over 25 µM in test [4]; 8.49 µM in test [5]; over 25 µM in test [6]. Besides, the TGI in test [7] and in test [8] was over 25 µM each time.

`c1ccc2[nH]c(-c3ccc(-c4nccc5c4[nH]c4ccccc45)cc3)nc2c1`: the GI50 in test [1] is 2.12 µM; in test [2] it was 2.27 µM; in test [3] it was 2.27 µM; in test [4], 2.43 µM; in test [5], 3.69 µM; in test [7], 2.79 µM. Besides, the GI50 in test [8] was 1.6 µM. Also, the TGI in test [1] came out at 5.42 µM; in test [2], 5.56 µM; in test [3], 7.75 µM; in test [4] it was 6.47 µM; in test [5] it was 14.3 µM; in test [7], 8.48 µM. The molecule also had a TGI in test [8] of 3.49 µM.

For the molecule `Cc1c(C(N)=O)sc2c1C(=O)N(Cc1ccccc1)C1=NN=C(c3ccc(Cl)cc3)CN12`, the GI50 was 3.66 µM in test [1]; 2.49 µM in test [2]; 2.81 µM in test [3]; 8.47 µM in test [4]; 1.84 µM in test [5]; 3.42 µM in test [6]. Besides, the values for the GI50 in test [7] and in test [8] were 3.99 µM and 2.23 µM, respectively. Further, the TGI in test [1] turned out to be 16.4 µM; in test [2], 11.8 µM; in test [3] it was 15.8 µM; in test [4], 21.1 µM; in test [5], 4.76 µM; in test [6] it was 15.6 µM. The values for the TGI in test [7] and in test [8] were 18.4 µM and 5.9 µM, respectively.

In the case of `COc1ccc(C2=CC(c3ccc4c(c3)OCO4)c3c(c4ccccc4oc3=O)O2)cc1OC` (stereo not drawn), the TGI in test [1] is over 100 µM; in test [2], 6.72 µM; in test [3], over 100 µM; in test [4], over 100 µM; in test [5], over 100 µM; in test [6], over 100 µM. The TGI in test [7] and in test [8] was over 100 µM each time.

As for `CCC1C2Cc3ccc(O)cc3C1(CC)CCN2C` (stereo not drawn), the TGI in test [1], in test [2], in test [3], in test [4], in test [5] and in test [6] was over 100 µM each time. In addition, the TGI in test [7] and in test [8] was over 100 µM each time.

Take `C=C(C)C(=O)Nc1ccc(NC(C)C)cc1`: the GI50 in test [1], in test [2], in test [3], in test [4], in test [5] and in test [6] was over 100 µM in each case. Moreover, the GI50 in test [7] and in test [8] was over 100 µM each time. The TGI in test [1], in test [2], in test [3], in test [4], in test [5] and in test [6] was over 100 µM in each case. Besides, the TGI in test [7] and in test [8] was over 100 µM each time.

For the molecule `COc1cc(/C=C/C(=O)c2cccc(Nc3nc(Nc4ccccc4)nc(Nc4ccccc4)n3)c2)cc(OC)c1OC`, the GI50 was 8.36 µM in test [1]; 17.2 µM in test [2]; 33.9 µM in test [3]; 38.4 µM in test [4]; 2.7 µM in test [5]; 20.7 µM in test [6]. Besides, the GI50 in test [7] is 3.73 µM; in test [8], 43.8 µM. For the same molecule, the TGI in test [1] was over 100 µM; in test [2] it was over 81 µM; in test [3] it was over 100 µM; in test [4] it was over 100 µM; in test [5], 23.8 µM; in test [6], over 100 µM. The TGI in test [7] and in test [8] was over 100 µM throughout.

Consider `O=C([CH-]C(=O)c1ccccc1)c1ccccc1.O=C([CH-]C(=O)c1ccccc1)c1ccccc1.[La+3].[OH-].[OH3+]`, for which the GI50 in test [2] is 1.67 µM; in test [3], 26.1 µM; in test [4], 65.8 µM; in test [5], 10.3 µM; in test [6], 18.4 µM; in test [7] it was 9.82 µM. Further, in test [8], the GI50 was 14 µM. Moreover, the TGI in test [2] was 17.7 µM; in test [3] it was over 100 µM; in test [4], over 100 µM; in test [5], 23.9 µM; in test [6], 68 µM; in test [7], over 100 µM. In addition, in test [8], the TGI worked out at 44.7 µM.

Take `CC(C)(C)c1ccc(Oc2nccc(-c3c(-c4ccc(F)cc4)ncn3C3CCNCC3)n2)cc1`: the GI50 was 4.1 µM in test [1]; 3.61 µM in test [3]; 4.26 µM in test [4]; 3.68 µM in test [5]; 3.65 µM in test [6]; 3.96 µM in test [7]. Moreover, the GI50 in test [8] was 4.25 µM. Besides, the TGI stood at 7.6 µM in test [1]; 7.32 µM in test [3]; 7.76 µM in test [4]; 7.03 µM in test [5]; 7.06 µM in test [6]; 7.82 µM in test [7]. The molecule also came in with a TGI in test [8] of 7.77 µM.
